{
  "source": "paper PMC5218480",
  "about": "(PLoS ONE, 2017)",
  "system": "MV-4-11 cells",
  "experiment": "Gene expression microarray analysis (Affymetrix PrimeView) and GSEA",
  "type": "cell-based, human",
  "set-up": "RFU PODN (11730768_x_at) / Fold change /veh PODN (11730768_x_at) / RFU LINC00158 (11744669_a_at) / Fold change /veh LINC00158 (11744669_a_at) / RFU DUSP10 (11751237_a_at) / Fold change /veh DUSP10 (11751237_a_at) / RFU ID3 (11757404_x_at) / Fold change /veh ID3 (11757404_x_at) / RFU PLEKHG5 (11737974_s_at) / Fold change /veh PLEKHG5 (11737974_s_at) / RFU LRRC4B (11730491_at) / Fold change /veh LRRC4B (11730491_at) / RFU GIMAP4 (11747438_a_at) / Fold change /veh GIMAP4 (11747438_a_at) / RFU KRT8 (11758183_x_at) / Fold change /veh KRT8 (11758183_x_at) / RFU CNN1 (11734310_a_at) / Fold change /veh CNN1 (11734310_a_at) / RFU VPS37D (11726825_at) / Fold change /veh VPS37D (11726825_at) / RFU C10orf10 (11716522_x_at) / Fold change /veh C10orf10 (11716522_x_at) / RFU KIR2DL2 /// KIR2DL4 /// KIR2DL5A /// KIR2DL5B /// KIR2DS1 /// KIR2DS2 /// KIR2DS3 /// KIR2DS4 /// KIR3DL3 /// KIR3DL3 /// KIR3DS1 (11738374_at) / Fold change /veh KIR2DL2 /// KIR2DL4 /// KIR2DL5A /// KIR2DL5B /// KIR2DS1 /// KIR2DS2 /// KIR2DS3 /// KIR2DS4 /// KIR3DL3 /// KIR3DL3 /// KIR3DS1 (11738374_at) / RFU C1QL1 (11718748_at) / Fold change /veh C1QL1 (11718748_at) / RFU TMPRSS4 (11747572_a_at) / Fold change /veh TMPRSS4 (11747572_a_at) / RFU HAMP (11756126_x_at) / Fold change /veh HAMP (11756126_x_at) / RFU RNFT2 (11725882_a_at) / Fold change /veh RNFT2 (11725882_a_at) / RFU NR4A2 (11747474_a_at) / Fold change /veh NR4A2 (11747474_a_at) / RFU ABCC12 (11746883_a_at) / Fold change /veh ABCC12 (11746883_a_at) / RFU TMEM136 (11760407_x_at) / Fold change /veh TMEM136 (11760407_x_at) / RFU CLDN22 /// WWC2 (11732394_at) / Fold change /veh CLDN22 /// WWC2 (11732394_at) / RFU HLA-DPB1 (11760878_x_at) / Fold change /veh HLA-DPB1 (11760878_x_at) / RFU SPINT1 (11716480_a_at) / Fold change /veh SPINT1 (11716480_a_at) / RFU GAP43 (11754022_s_at) / Fold change /veh GAP43 (11754022_s_at) / RFU A4GNT (11735810_at) / Fold change /veh A4GNT (11735810_at) / RFU PRB3 (11715151_x_at) / Fold change /veh PRB3 (11715151_x_at) / RFU TUBB4B (11761932_at) / Fold change /veh TUBB4B (11761932_at) / RFU CAPN14 (11732068_a_at) / Fold change /veh CAPN14 (11732068_a_at) / RFU TMCC2 (11721928_a_at) / Fold change /veh TMCC2 (11721928_a_at) / RFU IRGQ (11745062_a_at) / Fold change /veh IRGQ (11745062_a_at) / RFU FAM174B (11720279_a_at) / Fold change /veh FAM174B (11720279_a_at) / RFU TMPRSS4 (11748680_a_at) / Fold change /veh TMPRSS4 (11748680_a_at) / RFU FAM212B (11763350_a_at) / Fold change /veh FAM212B (11763350_a_at) / RFU PLEKHG5 (11743358_a_at) / Fold change /veh PLEKHG5 (11743358_a_at) / RFU ZSCAN30 (11745921_a_at) / Fold change /veh ZSCAN30 (11745921_a_at) / RFU CMKLR1 (11741424_a_at) / Fold change /veh CMKLR1 (11741424_a_at) / RFU LOC101060620 /// MAPK8IP1 (11723275_at) / Fold change /veh LOC101060620 /// MAPK8IP1 (11723275_at) / RFU SPTSSB (11747773_x_at) / Fold change /veh SPTSSB (11747773_x_at) / RFU PRSS12 (11739890_at) / Fold change /veh PRSS12 (11739890_at) / RFU BIN1 (11741810_x_at) / Fold change /veh BIN1 (11741810_x_at) / RFU WNT11 (11732464_a_at) / Fold change /veh WNT11 (11732464_a_at) / RFU C10orf10 (11716521_a_at) / Fold change /veh C10orf10 (11716521_a_at) / RFU C5orf56 (11738089_at) / Fold change /veh C5orf56 (11738089_at) / RFU CYB561 (11721691_x_at) / Fold change /veh CYB561 (11721691_x_at) / RFU ANKRD19P (11752326_a_at) / Fold change /veh ANKRD19P (11752326_a_at) / RFU OR2T12 /// OR2T33 /// OR2T8 (11738714_s_at) / Fold change /veh OR2T12 /// OR2T33 /// OR2T8 (11738714_s_at) / RFU VCAN (11748164_a_at) / Fold change /veh VCAN (11748164_a_at) / RFU JSRP1 (11732532_at) / Fold change /veh JSRP1 (11732532_at) / RFU KRTAP10-11 (11738290_x_at) / Fold change /veh KRTAP10-11 (11738290_x_at) / RFU MYO3A (11730013_a_at) / Fold change /veh MYO3A (11730013_a_at) / RFU EBF3 (11725865_a_at) / Fold change /veh EBF3 (11725865_a_at) / RFU CAMK2N1 (11719241_x_at) / Fold change /veh CAMK2N1 (11719241_x_at) / RFU C5orf56 (11738088_a_at) / Fold change /veh C5orf56 (11738088_a_at) / RFU OLFML3 (11715873_a_at) / Fold change /veh OLFML3 (11715873_a_at) / RFU LOC100653217 /// NTM (11731650_a_at) / Fold change /veh LOC100653217 /// NTM (11731650_a_at) / RFU MAPK11 (11762145_a_at) / Fold change /veh MAPK11 (11762145_a_at) / RFU FIZ1 (11724087_x_at) / Fold change /veh FIZ1 (11724087_x_at) / RFU OASL (11726364_x_at) / Fold change /veh OASL (11726364_x_at) / RFU SOX15 (11748057_x_at) / Fold change /veh SOX15 (11748057_x_at) / RFU CD79A (11719716_a_at) / Fold change /veh CD79A (11719716_a_at) / RFU HIST1H1D (11736915_at) / Fold change /veh HIST1H1D (11736915_at) / RFU CASKIN2 (11723855_a_at) / Fold change /veh CASKIN2 (11723855_a_at) / RFU LOC730098 (11760151_x_at) / Fold change /veh LOC730098 (11760151_x_at) / RFU OR4N2 (11742367_at) / Fold change /veh OR4N2 (11742367_at) / RFU PRRT2 (11749266_a_at) / Fold change /veh PRRT2 (11749266_a_at) / RFU SNX32 (11753110_a_at) / Fold change /veh SNX32 (11753110_a_at) / RFU CDHR5 (11726645_a_at) / Fold change /veh CDHR5 (11726645_a_at) / RFU RCAN1 (11760418_a_at) / Fold change /veh RCAN1 (11760418_a_at) / RFU FAM167A (11723789_a_at) / Fold change /veh FAM167A (11723789_a_at) / RFU FAM26E (11764081_at) / Fold change /veh FAM26E (11764081_at) / RFU ISYNA1 (11749810_s_at) / Fold change /veh ISYNA1 (11749810_s_at) / RFU ACY1 (11761880_at) / Fold change /veh ACY1 (11761880_at) / RFU 11764098_at / Fold change /veh 11764098_at / RFU SAMD14 (11745864_x_at) / Fold change /veh SAMD14 (11745864_x_at) / RFU NPB (11741838_a_at) / Fold change /veh NPB (11741838_a_at) / RFU TMPRSS6 (11731388_a_at) / Fold change /veh TMPRSS6 (11731388_a_at) / RFU KRTAP10-2 (11738614_at) / Fold change /veh KRTAP10-2 (11738614_at) / RFU ARHGAP8 /// PRR5-ARHGAP8 (11727945_x_at) / Fold change /veh ARHGAP8 /// PRR5-ARHGAP8 (11727945_x_at) / RFU KRTAP5-7 /// NADSYN1 (11734609_at) / Fold change /veh KRTAP5-7 /// NADSYN1 (11734609_at) / RFU RASL12 (11751679_a_at) / Fold change /veh RASL12 (11751679_a_at) / RFU CDKN2B (11736163_a_at) / Fold change /veh CDKN2B (11736163_a_at) / RFU PRF1 (11729649_at) / Fold change /veh PRF1 (11729649_at) / RFU, ZNF638 /// ZNF638-IT1 / Fold change vs veh, ZNF638 /// ZNF638-IT1 / RFU, PANK3 / Fold change vs veh, PANK3 / RFU, SH3YL1 / Fold change vs veh, SH3YL1 / RFU, ZEB2 / Fold change vs veh, ZEB2 / RFU, NRIP1 / Fold change vs veh, NRIP1 / RFU, PTTG1IP / Fold change vs veh, PTTG1IP / RFU, CAPN2 / Fold change vs veh, CAPN2 / RFU, MED14 / Fold change vs veh, MED14 / RFU, SNORA58 / Fold change vs veh, SNORA58 / RFU, C1orf63 / Fold change vs veh, C1orf63 / RFU, LRRFIP1 / Fold change vs veh, LRRFIP1 / RFU, NDUFAF7 / Fold change vs veh, NDUFAF7 / RFU, SLC12A2 / Fold change vs veh, SLC12A2 / RFU, IBTK / Fold change vs veh, IBTK / RFU, ESF1 / Fold change vs veh, ESF1 / Fold change vs veh, TMEM50B / RFU, TAOK1 / Fold change vs veh, TAOK1 / RFU, ACBD3 / Fold change vs veh, ACBD3 / RFU, TMA16 / Fold change vs veh, TMA16 / RFU, RWDD3 / Fold change vs veh, RWDD3 / RFU, BCAT1 / Fold change vs veh, BCAT1 / RFU, EDEM3 / Fold change vs veh, EDEM3 / RFU, TMEM33 / Fold change vs veh, TMEM33 / RFU, WDR75 / Fold change vs veh, WDR75 / RFU, AHCTF1 / Fold change vs veh, AHCTF1 / RFU, TFRC / Fold change vs veh, TFRC / RFU, ZDHHC17 / Fold change vs veh, ZDHHC17 / RFU, NOM1 / Fold change vs veh, NOM1 / RFU, ARL8B / Fold change vs veh, ARL8B / RFU, ZBTB11 / Fold change vs veh, ZBTB11 / RFU, TAMM41 / Fold change vs veh, TAMM41 / RFU, KIAA1704 /// LOC100996395 / Fold change vs veh, KIAA1704 /// LOC100996395 / RFU, ING1 / Fold change vs veh, ING1 / RFU, TRMT61B / Fold change vs veh, TRMT61B / RFU, FUBP3 / Fold change vs veh, FUBP3 / RFU, TP53 / Fold change vs veh, TP53 / RFU, TNKS2 / Fold change vs veh, TNKS2 / RFU, ZFP14 / Fold change vs veh, ZFP14 / RFU, ACTR2 / Fold change vs veh, ACTR2 / RFU, PPP3R1 / Fold change vs veh, PPP3R1 / RFU, PIK3R1 / Fold change vs veh, PIK3R1 / RFU, HNRNPA1 / Fold change vs veh, HNRNPA1 / RFU, RNF170 / Fold change vs veh, RNF170 / RFU, ZNF28 / Fold change vs veh, ZNF28 / RFU, RNGTT / Fold change vs veh, RNGTT / RFU, OGT / Fold change vs veh, OGT / RFU, BRD1 / Fold change vs veh, BRD1 / RFU, MARS / Fold change vs veh, MARS / RFU, ZNF655 / Fold change vs veh, ZNF655 / RFU, FAHD1 / Fold change vs veh, FAHD1 / RFU, BDP1 / Fold change vs veh, BDP1 / RFU, LRRCC1 / Fold change vs veh, LRRCC1 / RFU, ARID1A / Fold change vs veh, ARID1A / RFU, ZNF146 / Fold change vs veh, ZNF146 / RFU, ZNF330 / Fold change vs veh, ZNF330 / RFU, GPN3 / Fold change vs veh, GPN3 / RFU, C9orf123 / Fold change vs veh, C9orf123 / RFU, N4BP2L2 / Fold change vs veh, N4BP2L2 / RFU, ARFIP1 / Fold change vs veh, ARFIP1 / RFU, FAM179B / Fold change vs veh, FAM179B / RFU, BCL10 / Fold change vs veh, BCL10 / RFU, UHRF1BP1L / Fold change vs veh, UHRF1BP1L / RFU, BET1 / Fold change vs veh, BET1 / RFU, CNOT2 / Fold change vs veh, CNOT2 / RFU, ZNF268 / Fold change vs veh, ZNF268 / Fold change vs veh, ZNF507 / RFU, DGCR2 / Fold change vs veh, DGCR2 / RFU, WDSUB1 / Fold change vs veh, WDSUB1 / Fold change vs veh, HSP90B1 /// MIR3652 / RFU, ADSS / Fold change vs veh, ADSS / RFU, GK / Fold change vs veh, GK / RFU, ZNF148 / Fold change vs veh, ZNF148 / RFU, TAF9 / Fold change vs veh, TAF9 / RFU, SLC1A5 / Fold change vs veh, SLC1A5 / RFU, SLMO2 / Fold change vs veh, SLMO2 / RFU, ABCC4 / Fold change vs veh, ABCC4 / RFU, LOC101060439 /// RAP1B / Fold change vs veh, LOC101060439 /// RAP1B / RFU, RFX7 / Fold change vs veh, RFX7 / RFU, GTPBP10 / Fold change vs veh, GTPBP10 / RFU, CNEP1R1 / Fold change vs veh, CNEP1R1 / RFU, BIVM-ERCC5 /// ERCC5 / Fold change vs veh, BIVM-ERCC5 /// ERCC5 / RFU, ILF3 / Fold change vs veh, ILF3 / RFU 11762660_at / Fold change /veh 11762660_at / RFU VCAN (11757783_s_at) / Fold change /veh VCAN (11757783_s_at) / RFU DDX43 (11728927_at) / Fold change /veh DDX43 (11728927_at) / RFU KRT8 (11758188_x_at) / Fold change /veh KRT8 (11758188_x_at) / RFU NKD1 (11759106_at) / Fold change /veh NKD1 (11759106_at) / RFU SRD5A1 (11742802_a_at) / Fold change /veh SRD5A1 (11742802_a_at) / RFU TPSAB1 /// TPSB2 (11721975_s_at) / Fold change /veh TPSAB1 /// TPSB2 (11721975_s_at) / RFU GSTM3 (11746129_a_at) / Fold change /veh GSTM3 (11746129_a_at) / RFU IL23R (11737362_x_at) / Fold change /veh IL23R (11737362_x_at) / RFU TMEM51 (11727254_a_at) / Fold change /veh TMEM51 (11727254_a_at) / RFU PIWIL2 (11732686_x_at) / Fold change /veh PIWIL2 (11732686_x_at) / RFU ORM1 (11744905_x_at) / Fold change /veh ORM1 (11744905_x_at) / RFU CCDC152 (11743942_at) / Fold change /veh CCDC152 (11743942_at) / RFU ECM1 (11717891_a_at) / Fold change /veh ECM1 (11717891_a_at) / RFU IL23R (11748794_a_at) / Fold change /veh IL23R (11748794_a_at) / RFU TNFAIP8L3 (11732012_x_at) / Fold change /veh TNFAIP8L3 (11732012_x_at) / RFU MBOAT4 (11741988_at) / Fold change /veh MBOAT4 (11741988_at) / RFU 11764193_at / Fold change /veh 11764193_at / RFU TMEM53 (11763286_at) / Fold change /veh TMEM53 (11763286_at) / RFU MAGEB2 (11727129_at) / Fold change /veh MAGEB2 (11727129_at) / RFU TMEM200A (11744735_a_at) / Fold change /veh TMEM200A (11744735_a_at) / RFU CCDC152 (11751479_a_at) / Fold change /veh CCDC152 (11751479_a_at) / RFU FAM211A (11726209_a_at) / Fold change /veh FAM211A (11726209_a_at) / RFU RGS16 (11746705_a_at) / Fold change /veh RGS16 (11746705_a_at) / RFU VCAN (11755009_s_at) / Fold change /veh VCAN (11755009_s_at) / RFU RHOB (11743442_s_at) / Fold change /veh RHOB (11743442_s_at) / RFU RGS16 (11720943_a_at) / Fold change /veh RGS16 (11720943_a_at) / RFU RGS16 (11720944_at) / Fold change /veh RGS16 (11720944_at) / RFU, VPS4B / Fold change vs veh, VPS4B / RFU, CREB1 / Fold change vs veh, CREB1 / RFU, DNAJC13 / Fold change vs veh, DNAJC13 / RFU, GNAQ / Fold change vs veh, GNAQ / RFU, CDK5R1 / Fold change vs veh, CDK5R1 / RFU, ZRANB3 / Fold change vs veh, ZRANB3 / RFU, CUL4A / Fold change vs veh, CUL4A / RFU, CCNY / Fold change vs veh, CCNY / RFU, UFL1 / Fold change vs veh, UFL1 / RFU, COG3 / Fold change vs veh, COG3 / RFU, DIAPH2 / Fold change vs veh, DIAPH2 / RFU, SKA2 / Fold change vs veh, SKA2 / RFU, AFF3 / Fold change vs veh, AFF3 / RFU, LMF1 / Fold change vs veh, LMF1 / RFU, IPO11 / Fold change vs veh, IPO11 / RFU, DFFB / Fold change vs veh, DFFB / RFU, FOXP1 / Fold change vs veh, FOXP1 / RFU, CARD8 / Fold change vs veh, CARD8 / RFU, STRN3 / Fold change vs veh, STRN3 / RFU, ADK / Fold change vs veh, ADK / RFU, RASSF2 / Fold change vs veh, RASSF2 / RFU, WIPF1 / Fold change vs veh, WIPF1 / RFU, LARP1B / Fold change vs veh, LARP1B / RFU, RASA1 / Fold change vs veh, RASA1 / RFU, RB1 / Fold change vs veh, RB1 / RFU, PPFIA1 / Fold change vs veh, PPFIA1 / RFU, MAT2A / Fold change vs veh, MAT2A / RFU, CCT5 / Fold change vs veh, CCT5 / RFU, WDR92 / Fold change vs veh, WDR92 / RFU, CUX1 / Fold change vs veh, CUX1 / RFU, TTC7A / Fold change vs veh, TTC7A / RFU, TMEM135 / Fold change vs veh, TMEM135 / RFU, DEPTOR / Fold change vs veh, DEPTOR / RFU, CPM / Fold change vs veh, CPM / RFU, DNAJB6 / Fold change vs veh, DNAJB6 / RFU, CACNA2D3 / Fold change vs veh, CACNA2D3 / RFU, DTX4 / Fold change vs veh, DTX4 / RFU, TFCP2 / Fold change vs veh, TFCP2 / RFU, GMCL1 /// GMCL1P1 / Fold change vs veh, GMCL1 /// GMCL1P1 / RFU, AEBP2 / Fold change vs veh, AEBP2 / RFU, SNHG1 /// SNORD22 /// SNORD25 /// SNORD26 /// SNORD27 /// SNORD28 /// SNORD29 /// SNORD31 / Fold change vs veh, SNHG1 /// SNORD22 /// SNORD25 /// SNORD26 /// SNORD27 /// SNORD28 /// SNORD29 /// SNORD31 / Fold change (Aza/veh), C12orf56 (ProbeSet 11735607_a_at) / Fold change (ACY-1035/veh), C12orf56 (ProbeSet 11735607_a_at) / Fold change (Aza/veh), FGFR1OP (ProbeSet 11751329_s_at) / Fold change (ACY-1035/veh), FGFR1OP (ProbeSet 11751329_s_at) / Fold change (Aza/veh), VPS36 (ProbeSet 11739960_a_at) / Fold change (ACY-1035/veh), VPS36 (ProbeSet 11739960_a_at) / RFU SYPL1 (11715823_x_at) / Fold change /veh SYPL1 (11715823_x_at) / RFU IGFBP7 (11715501_s_at) / Fold change /veh IGFBP7 (11715501_s_at) / RFU REEP3 (11722064_at) / Fold change /veh REEP3 (11722064_at) / RFU IGLL1 (11728026_x_at) / Fold change /veh IGLL1 (11728026_x_at): dose or concentration left out as unconfirmed",
  "details": "MV-4-11 cells, 48 hours",
  "data": [
    {"smiles": "Nc1ncn([C@@H]2O[C@H](CO)[C@@H](O)[C@H]2O)c(=O)n1", "note": "[azacitidine]", "values": [
      {"measurement": "RFU VCAN (11748164_a_at)", "result": 5.82, "unit": "RFU"}
    ]}
  ]
}
